Tested on: diet-induced (DIO) mice
Assay: Body weight study in diet-induced (DIO) mice (Example 9)
Assay type: in vivo, C57BL/6NTac mice
Details: gavage BID (DA 92.4 mg/kg, CQL 50 mg/kg)
Protocol: This example provides results of a study of DA plus another compound (CQL) on body weight in diet-induced (DIO) mice. Adult C57BL/6NTac mice were fed with a high fat diet (60%). […] The study period was for 56 days+2-3 days testing period afterward. Body weight change measure 3× per week, food and water consumption on days 0, 12, 28, 42 and 56. Metabolic biomarkers were measured on days 28 and 56. Cytokine analysis on Days 28 and 56. Serum levels of GLP-1, GLP-2, and CCK at 1 h after dosing on Days 1 and 56, and at 2 h after dosing on Day 7 (dosing (>6 h fasting prior to dosing until after blood collection); and serum level of PPY on Day 56.

Structure (SMILES): Oc1c(I)cc(Cl)c2cccnc12 [CQL]
- Serum HbA1c level at Day 28: significantly reduced
- Serum HbA1c level at Day 56: considerably increased
- Daily water intake at Day 28 (vs vehicle): significantly decreased

From US20230096528A1, “Pharmaceutical Composition for Treatment or Prevention of Multiple Inflammatory disorders” (priority 2019, published 2023)
